# Measured values as given in US20090137538A1, “METHOD OF TREATING ATROPHIC VAGINITIS” (priority 2006, published 2009).
# Like-named read-outs stand apart in the source and are kept apart here.
# Legend:
# [1] = vaginal ring, after vaginal administration; cited from earlier work
# endometrium [2] = test: Example 6: endometrial biopsy at 6 months; format: in vivo, human; conditions: vaginal dose of 30 mg in the combination suppository, biopsy after 6 months
# Source text: Five patients underwent an endometrial biopsy (EMB) after 6 months of treatment.
# [3] = cited from earlier work
# [4] = cited from earlier work; remark: listed apart in the source
# [5] = relative risk ratio vs placebo, cited from earlier work
# [6] = cited from earlier work; remark: listed apart in the source
# [7] = test system: urinary urgency, urge incontinence, nocturia; conditions: vaginal therapy; cited from earlier work
# menopausal women = conditions: cited from earlier work
# SIV = conditions: vaginal transmission; base cream alone 75%; cited from earlier work
# lactobacilli = conditions: cited from earlier work
# [8] = test system: women with recurrent urinary tract infections; conditions: cited from earlier work
# endometrium [9] = conditions: oral 2 mg per day, average three weeks prior to hysterectomy; cited from earlier work
# [10] = biological target: T1, sex hormone-binding globulin (SHBG) (Homo sapiens, UniProt P04278); conditions: unlike estradiol and estrone; cited from earlier work
# T1 sequence (P04278 30-402): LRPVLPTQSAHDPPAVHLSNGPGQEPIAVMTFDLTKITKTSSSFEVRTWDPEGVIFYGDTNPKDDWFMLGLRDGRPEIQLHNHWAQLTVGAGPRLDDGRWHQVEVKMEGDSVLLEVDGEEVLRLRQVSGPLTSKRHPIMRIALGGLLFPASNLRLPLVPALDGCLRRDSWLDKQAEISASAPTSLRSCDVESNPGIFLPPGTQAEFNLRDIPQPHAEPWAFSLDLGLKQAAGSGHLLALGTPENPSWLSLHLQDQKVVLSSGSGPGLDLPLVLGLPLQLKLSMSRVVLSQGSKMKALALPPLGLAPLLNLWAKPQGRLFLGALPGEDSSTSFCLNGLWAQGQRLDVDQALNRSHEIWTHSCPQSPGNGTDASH
# [11] = dose of 0.5 mg, menopausal patients
smiles,measurement,setting,value
C#C[C@]1(O)CC[C@H]2[C@@H]3CCc4cc(O)ccc4[C@H]3CC[C@@]21C [ethinylestradiol],bioavailability,[1],approximately 55.6%
"CC(=O)[C@H]1CC[C@H]2[C@@H]3CCC4=CC(=O)CC[C@]4(C)[C@H]3CC[C@]12C [Progesterone, pregn-4-ene-3, 20-dione]",effect on estrogen stimulated postmenopausal endometrium,endometrium [2],anti-proliferative effect
same,Quality of life/menopausal symptoms,[3]; MP-containing HRT compared with MPA-containing regimen,containing HRT experienced significant improvement in symptoms
same,Cardiovascular Events,[3]; in vivo,MP: has antihypertensive action and can be safely used to treat
same,Lipid Profile,[3]; in vivo,MP: does not negate the beneficial effects of estrogen and modestly
same,Liver function,[3]; in vivo,MP: does not effect liver enzymes or cause liver related side
same,Sleep and Mood,[3]; in vivo,MP: improves the quality of sleep and has sedative properties.
same,serum concentration,[4]; 25 mg vaginal suppository,7.27 ng/mL
same,serum concentration,[4]; 50 mg vaginal suppository,8.84 ng/mL
"CCN(CC)CC#CCOC(=O)C(O)(c1ccccc1)C1CCCCC1 (stereo not drawn) [Oxybutynin IR, Oxybutynin]",Any AE*,[5]; dose 8.8-15 mg,1.4
same,Blurred Vision,[5]; dose 8.8-15 mg,1.7
same,Dry Mouth,[5]; dose 8.8-15 mg,3.3
same,Dyspepsia,[5]; dose 8.8-15 mg,3.3
same,Urinary Retention*,[5]; dose 8.8-15 mg,5.6
C[C@]12CC[C@@H]3c4ccc(O)cc4CC[C@H]3[C@@H]1CC[C@@H]2O [estradiol],serum estradiol levels after vaginal versus oral administration,[6]; same dose,ten-fold higher
same,endometrial concentrations after vaginal versus oral administration,[6]; same exact dose,seventy-fold higher
"CC(=O)O[C@]1(C(C)=O)CC[C@H]2[C@@H]3C[C@H](C)C4=CC(=O)CC[C@]4(C)[C@H]3CC[C@@]21C [MPA, Medroxyprogesterone Acetate]",Lipid Profile,[3]; in vivo,MPA: adversely effects lipid profile and negates the beneficial
same,Liver function,[3]; in vivo,MPA: contraindicated in patients with liver dysfunction.
same,Sleep and Mood,[3]; in vivo,"MPA: can cause insomnia, mental depression, and anxiety."
O=C(O[C@H]1C[C@H]2CC[C@@H](C1)[N+]21CCCC1)C(O)(c1ccccc1)c1ccccc1 [Trospium],Any AE*,[5]; dose 40 mg,1.5
same,Constipation,[5]; dose 40 mg,2.1
same,Dry Mouth,[5]; dose 40 mg,3.2
NC(=O)C(c1ccccc1)(c1ccccc1)[C@@H]1CCN(CCc2ccc3c(c2)CCO3)C1 [Darifenacin],Any AE*,[5]; dose 7.5 mg,1.2
same,Constipation,[5]; dose 7.5 mg,2.2
same,Dry Mouth,[5]; dose 7.5 mg,2.2
same,Any AE*,[5]; dose 15 mg,1.4
same,Constipation,[5]; dose 15 mg,2.4
same,Dry Mouth,[5]; dose 15 mg,2.9
"C[C@]12CC[C@@H]3c4ccc(O)cc4CC[C@H]3[C@@H]1C[C@@H](O)[C@@H]2O [Estriol, 16-alpha, 17-beta, estra 1,3,5 (10) triene 3, 16, 17-triol]",alleviating nocturia,[7],54%
same,alleviating urge incontinence,[7],58%
same,alleviating urinary urgency,[7],56%
same,reduction of the vaginal pH,menopausal women; [11],failed to reduce
same,vaginal pH after therapy,"menopausal women; menopausal women, ovules 1 mg, 24 weeks",4.12
same,SIV infection rate,SIV,8.3%
same,patients in whom lactobacilli reappeared,"lactobacilli; after one month, no patients receiving placebo",61%
same,restoration of the population of lactobacilli,lactobacilli; [11],failed to restore
same,reduction of the requirement for antibiotics compared to those unsupplemented,[8],up to 16 times
same,women with hyperplastic changes on histological exam of the uteri,endometrium [9],70.8%
same,binding to sex hormone-binding globulin,[10],does not bind
